According to patent US10633419B2, “Immunomodulators” (BRISTOL-MYERS SQUIBB COMPANY, priority 2014, dated 2020):
Starred links: 1 amine or outer side, 2 acyl side, 3 side chain; linkers in the order of their positions; H or OH if unused. Positions of bridges follow the written chain, without caps; N, C: chain ends. Non-standard residues stand in square brackets, D forms with d. Residues, ends and D or L forms follow the SMILES beside them. Groups on a side chain read outwards from the residue. *: point of attachment. X18 = O=C(O)CCCCCCCCCCCCCCC(=O)N[C@@H](CC(=O)NCCCOCCOCCOCCCN*)C(=O)O; Trp(1-CH2COOH) = N[C@@H](Cc1cn(CC(=O)O)c2ccccc12)C(=O)O; X8 = O=C(O)CCCCCCCCCCCCNC(=O)CCC(=O)NCCCOCCOCCOCCCN*; X9 = O=C(O)CCCCCCCCCCCCCCCCC(=O)N[C@@H](CCN*)C(=O)O; C18 diacid = O=C(O)CCCCCCCCCCCCCCCCC(=O)*; Phe(4-F) = N[C@@H](Cc1ccc(F)cc1)C(=O)O; γGlu = O=C(O)[C@H](CCC(=O)[*:2])N[*:1]; d(cisHyp) = O=C(O)[C@H]1C[C@@H](O)CN1; X19 = O=C(C1C[C@H](O)CN1[*:1])[*:2]; Ethylenediamine = C(CN[*:2])N[*:1]; Hyp = O=C(O)[C@@H]1C[C@@H](O)CN1; NMeNle = CCCC[C@H](NC)C(=O)O; Pip = O=C(O)[C@@H]1CCCCN1; NMeA = CN[C@@H](C)C(=O)O; Pra = C#CC[C@H](N)C(=O)O; Aun = NCCCCCCCCCCC(=O)O; Dab = NCC[C@H](N)C(=O)O; Dap = NC[C@H](N)C(=O)O

biological target: T1, PD-L1 (Homo sapiens, UniProt Q9NZQ7); assay: PD-1/PD-L1 Homogenous Time-Resolved Fluorescence (HTRF) binding assay (PD-1-Ig/PD-L1-His); details: inhibition of PD-1-Ig binding to PD-L1-TVMV-His; value given as number; read-out: HTRF IC50
T1 construct: hPDL1(19-239)-TVMV-His; made in house; host or cells: HEK293T
T1 sequence (Q9NZQ7 with tags, fused parts or gaps): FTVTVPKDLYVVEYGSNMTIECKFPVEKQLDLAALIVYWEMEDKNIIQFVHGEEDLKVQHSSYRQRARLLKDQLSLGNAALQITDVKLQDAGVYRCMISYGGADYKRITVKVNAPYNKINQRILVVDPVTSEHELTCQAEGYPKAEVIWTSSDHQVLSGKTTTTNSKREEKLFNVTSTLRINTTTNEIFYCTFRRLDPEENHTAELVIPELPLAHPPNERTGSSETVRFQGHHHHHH
Procedure, shortened: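 HTRF competition in dPBS with 0.1% BSA and 0.05% Tween-20: 20 nM PD-1-Ig added after 15 min compound pre-incubation with 10 nM PD-L1-His, then another 15 min. Signal (665/620 nm) after 30 min with APC anti-His (20 nM) and Eu anti-Ig (1 nM).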

Row | Structure (SMILES) | IC50
1 | CCCC[C@H]1C(=O)N(C)[C@@H](CCCC)C(=O)N[C@@H](CC(C)C)C(=O)N[C@H](C(=O)NCC(=O)N[C@@H](Cc2cn(CC[C@H](NC(=O)CCCCCCCCCCCCCCCCC(=O)O)C(=O)O)nn2)C(N)=O)CSCC(=O)N[C@@H](Cc2ccc(O)cc2)C(=O)N(C)[C@@H](C)C(=O)N[C@@H](CC(N)=O)C(=O)N2CCC[C@H]2C(=O)N[C@@H](CN)C(=O)N[C@@H](CC(C)C)C(=O)N2C[C@H](O)C[C@H]2C(=O)N[C@@H](Cc2c[nH]c3ccccc23)C(=O)N[C@@H](CCN)C(=O)N[C@@H](Cc2cn(CC(=O)O)c3ccccc23)C(=O)N1C [Example 14096] | 790 nM
2 | CCCC[C@H]1C(=O)N(C)[C@@H](CCCC)C(=O)N[C@@H](CC(C)C)C(=O)N[C@H](C(=O)NCC(=O)NCC(=O)NCC(=O)NCCCCCCCCCCC(=O)O)CSCC(=O)N[C@@H](Cc2ccc(O)cc2)C(=O)N(C)[C@@H](C)C(=O)N[C@@H](CC(N)=O)C(=O)N2CCC[C@H]2C(=O)N[C@@H](CN)C(=O)N[C@@H](CCC(N)=O)C(=O)N2C[C@H](O)C[C@H]2C(=O)N[C@@H](Cc2c[nH]c3ccccc23)C(=O)N[C@@H](CCN)C(=O)N[C@@H](Cc2cn(CC(=O)O)c3ccccc23)C(=O)N1C [Example 11094] ({CH2CO}-Y[NMeA]NP[Dap]Q[Hyp]W[Dab][Trp(1-CH2COOH)][NMeNle][NMeNle]LCGGG[Aun]-OH; thioether N-14) | 18.8 nM

same assay, conditions: inhibition of PD-1-Ig binding to PD-L1-TVMV-His; value given as range class; read-out: HTRF IC50

Row | Structure (SMILES) | IC50
3 | CCCC[C@H]1C(=O)N(C)[C@@H](CCCC)C(=O)N[C@@H](CC(C)C)C(=O)N[C@H](C(=O)NCC(=O)N[C@@H](CC(=O)NCCNC(=O)CC[C@H](NC(=O)CCCCCCCCCCCCCCCCC(=O)O)C(=O)O)C(=O)O)CSCC(=O)N[C@@H](Cc2ccc(F)cc2)C(=O)N2CCCC[C@H]2C(=O)N[C@@H](CC(=O)O)C(=O)N2CCC[C@H]2C(=O)N[C@@H](CN)C(=O)N[C@@H](CC(C)C)C(=O)N2C[C@H](O)C[C@H]2C(=O)N[C@@H](Cc2c[nH]c3ccccc23)C(=O)N[C@@H](CCN)C(=O)N[C@@H](Cc2cn(CC(=O)O)c3ccccc23)C(=O)N1C [Example 14124] ({CH2CO}-[Phe(4-F)][Pip]DP[Dap]L[Hyp]W[Dab][Trp(1-CH2COOH)][NMeNle][NMeNle]LCGD([Ethylenediamine-γGlu-C18 diacid])-OH; thioether N-14) | 10 to 99 nM
4 | C=C1N[C@@H](Cc2c[nH]c3ccccc23)C(=O)N[C@@H](CCN)C(=O)N[C@@H](Cc2cn(CC(=O)O)c3ccccc23)C(=O)N(C)[C@@H](CCCC)C(=O)N(C)[C@@H](CCCC)C(=O)N[C@@H](CC(C)C)C(=O)N[C@H](C(=O)NCC(=O)N[C@@H](CC(=O)NCCOCCOCCOCCOCCOCCOCCC(=O)NC[C@H](NC(=O)CCCCCCCCCCCCCCCCC(=O)O)C(=O)O)C(=O)O)CSCC(=O)N[C@@H](Cc2ccc(O)cc2)C(=O)N(C)[C@@H](C)C(=O)N[C@@H](CC(N)=O)C(=O)N2CCC[C@H]2C(=O)N[C@@H](CN)C(=O)N[C@@H](CC(C)C)C(=O)N2C[C@H](O)C[C@@]12O [Example 11183] | 100 to 1600 nM
5 | CCCC[C@H]1C(=O)N(C)[C@@H](CCCC)C(=O)N[C@@H](CCC(=O)O)C(=O)N[C@H](C(=O)NCC(=O)NCC(=O)NCC(=O)NCCCCCCCCCCC(=O)O)CSCC(=O)N[C@@H](Cc2ccc(O)cc2)C(=O)N(C)[C@@H](C)C(=O)N[C@@H](CC(=O)O)C(=O)N2CCC[C@H]2C(=O)N[C@@H](CN)C(=O)N[C@@H](CC(C)C)C(=O)N2C[C@H](O)C[C@@H]2C(=O)N[C@@H](Cc2c[nH]c3ccccc23)C(=O)N[C@@H](CCN)C(=O)N[C@@H](Cc2cn(CC(=O)O)c3ccccc23)C(=O)N1C [Example 11144] ({CH2CO}-Y[NMeA]DP[Dap]L[d(cisHyp)]W[Dab][Trp(1-CH2COOH)][NMeNle][NMeNle]ECGGG[Aun]-OH; thioether N-14) | 10 to 99 nM
6 | CCCC[C@H]1C(=O)N(C)[C@@H](CCCC)C(=O)N[C@@H](CC(C)C)C(=O)N[C@H](C(=O)NCC(=O)N[C@@H](Cc2cn(CCOCCOCCOCCOCCOCCOCCOCCOCCOCCOCCOCCNC(=O)CC[C@H](NC(=O)CCCCCCCCCCCCCCCCC(=O)O)C(=O)O)nn2)C(=O)O)CSCC(=O)N[C@@H](Cc2ccc(O)cc2)C(=O)N2CCCC[C@H]2C(=O)N[C@@H](CC(N)=O)C(=O)N2CCC[C@H]2C(=O)N[C@@H](CN)C(=O)N[C@@H](CC(C)C)C(=O)N2C[C@H](O)C[C@H]2C(=O)N[C@@H](Cc2c[nH]c3ccccc23)C(=O)N[C@@H](CCN)C(=O)N[C@@H](Cc2cn(CC(=O)O)c3ccccc23)C(=O)N1C [Example 14104] | 100 to 1600 nM
7 | CCCC[C@H]1C(=O)N(C)[C@@H](CCCC)C(=O)N[C@@H](CC(C)C)C(=O)N[C@H](C(=O)NCC(=O)N[C@@H](Cc2cn(CC[C@H](NC(=O)CCCCCCCCCCCCCCCCC(=O)O)C(=O)O)nn2)C(=O)O)CSCC(=O)N[C@@H](Cc2ccc(O)cc2)C(=O)N2CCCC[C@H]2C(=O)N[C@@H](CC(N)=O)C(=O)N2CCC[C@H]2C(=O)N[C@@H](CNC)C(=O)N[C@@H](CC(C)C)C(=O)N2C[C@H](O)C[C@H]2C(=O)N[C@@H](Cc2c[nH]c3ccccc23)C(=O)N[C@@H](CCN)C(=O)N[C@@H](Cc2cn(CC(=O)O)c3ccccc23)C(=O)N1C [Example 13133] | 0.3 to 9.9 nM
8 | C#CC[C@H](NC(=O)CNC(=O)[C@@H]1CSCC(=O)N[C@@H](Cc2ccc(O)cc2)C(=O)N(C)[C@@H](C)C(=O)N[C@@H](CC(N)=O)C(=O)N2CCC[C@H]2C(=O)N[C@@H](CN)C(=O)N[C@@H](CC(C)C)C(=O)N2C[C@H](O)C[C@H]2C(=O)N[C@@H](Cc2c[nH]c3ccccc23)C(=O)N[C@@H](CO)C(=O)N[C@@H](Cc2cn(CC(=O)O)c3ccccc23)C(=O)N(C)[C@@H](CCCC)C(=O)N(C)[C@@H](CCCC)C(=O)N[C@@H](CC(C)C)C(=O)N1)C(N)=O [INT 1300X] ({CH2CO}-Y[NMeA]NP[Dap]L[Hyp]WS[Trp(1-CH2COOH)][NMeNle][NMeNle]LCG[Pra]-NH2; thioether N-14) | 10 to 99 nM
9 | C#CC[C@H](NC(=O)CNC(=O)[C@@H]1CSCC(=O)N[C@@H](Cc2ccc(O)cc2)C(=O)N2CCCC[C@H]2C(=O)N[C@@H](CC(N)=O)C(=O)N2CCC[C@H]2C(=O)N[C@@H](CN)C(=O)N[C@@H](CC(C)C)C(=O)N2C[C@H](O)C[C@H]2C(=O)N[C@@H](Cc2c[nH]c3ccccc23)C(=O)N[C@@H](CCN)C(=O)N[C@@H](Cc2cn(CC(=O)O)c3ccccc23)C(=O)N(C)[C@@H](CCCC)C(=O)N(C)[C@@H](CCCC)C(=O)N[C@@H](CC(C)C)C(=O)N1)C(=O)O [INT130AI] ({CH2CO}-Y[Pip]NP[Dap]L[Hyp]W[Dab][Trp(1-CH2COOH)][NMeNle][NMeNle]LCG[Pra]-OH; thioether N-14) | 0.3 to 9.9 nM
10 | CCCC[C@H]1C(=O)N(C)[C@@H](CCCC)C(=O)N[C@@H](CC(C)C)C(=O)N[C@H](C(=O)NCC(=O)N[C@@H](CC(=O)NCC[C@H](NC(=O)CCCCCCCCCCCCCCCCC(=O)O)C(=O)O)C(=O)O)CSCC(=O)N[C@@H](Cc2ccc(F)cc2)C(=O)N2CCCC[C@H]2C(=O)N[C@@H](CC(=O)O)C(=O)N2CCC[C@H]2C(=O)N[C@@H](CN)C(=O)N[C@@H](CC(C)C)C(=O)N2C[C@H](O)C[C@H]2C(=O)N[C@@H](Cc2c[nH]c3ccccc23)C(=O)N[C@@H](CCN)C(=O)N[C@@H](Cc2cn(CC(=O)O)c3ccccc23)C(=O)N1C [Example 13147] ({CH2CO}-[Phe(4-F)][Pip]DP[Dap]L[Hyp]W[Dab][Trp(1-CH2COOH)][NMeNle][NMeNle]LCGD(X9)-OH; thioether N-14) | 100 to 1600 nM
11 | CCCC[C@H]1C(=O)N(C)[C@@H](CCCC)C(=O)N[C@@H](CCCNC(=N)N)C(=O)N[C@H](C(=O)NCC(=O)NCC(=O)NCCCCCCCCCCC(=O)O)CSCC(=O)N[C@@H](Cc2ccc(O)cc2)C(=O)N(C)[C@@H](C)C(=O)N[C@@H](CC(=O)O)C(=O)N2CCC[C@H]2C(=O)N[C@@H](Cc2cnc[nH]2)C(=O)N[C@@H](CC(C)C)C(=O)N2C[C@H](O)C[C@H]2C(=O)N[C@@H](Cc2c[nH]c3ccccc23)C(=O)N[C@@H](CO)C(=O)N[C@@H](Cc2c[nH]c3ccccc23)C(=O)N1C [Example 11071] ({CH2CO}-Y[NMeA]DPHL[Hyp]WSW[NMeNle][NMeNle]RCGG[Aun]-OH; thioether N-14) | 0.3 to 9.9 nM
12 | CCCC[C@H]1C(=O)N(C)[C@@H](CCCC)C(=O)N[C@@H](CC(C)C)C(=O)N[C@H](C(=O)NCCCOCCOCCOCCCNC(=O)CCC(=O)NCCCCCCCCCCCCC(=O)O)CSCC(=O)N[C@@H](Cc2ccc(O)cc2)C(=O)N(C)[C@@H](C)C(=O)N[C@@H](CC(N)=O)C(=O)N2CCC[C@H]2C(=O)N[C@@H](CN)C(=O)N[C@@H](CC(C)C)C(=O)N2C[C@H](O)C[C@H]2C(=O)N[C@@H](Cc2c[nH]c3ccccc23)C(=O)N[C@@H](CCN)C(=O)N[C@@H](Cc2cn(CC(=O)O)c3ccccc23)C(=O)N1C [Example 11214] ({CH2CO}-Y[NMeA]NP[Dap]L[Hyp]W[Dab][Trp(1-CH2COOH)][NMeNle][NMeNle]LC-X8; thioether N-14) | 10 to 99 nM
13 | CCCC[C@H]1C(=O)N(C)[C@@H](CCCC)C(=O)N[C@@H](CC(C)C)C(=O)N[C@@H](C(=O)N[C@@H](CC(=O)O)C(=O)N[C@@H](CCC(=O)NCCCOCCOCCOCCCNC(=O)C[C@H](NC(=O)CCCCCCCCCCCCCCC(=O)O)C(=O)O)C(=O)O)CSCC(=O)N[C@@H](Cc2ccc(O)cc2)C(=O)N(C)[C@@H](C)C(=O)N[C@@H](CC(N)=O)C(=O)N2CCC[C@@H]2C(=O)N[C@@H](CN)C(=O)N[C@@H](CC(C)C)C(=O)N2C[C@@H](O)CC2C(=O)N[C@@H](Cc2c[nH]c3ccccc23)C(=O)N[C@@H](CCN)C(=O)N[C@@H](Cc2cn(CC(=O)O)c3ccccc23)C(=O)N1C (stereo partly shown) [Example 11245] ({CH2CO}-Y[NMeA]N[dP][Dap]L[X19]W[Dab][Trp(1-CH2COOH)][NMeNle][NMeNle]L[dC]DE(X18)-OH; thioether N-14) | 10 to 99 nM
